The values below come from patent US20070098777A1, “Pharmaceutical or Food Composition for Treatment or Prevention of Brain Edema” (AJINOMOTO CO., INC., priority 2000, published 2007).

Each structure is given as a SMILES string.

Assay [1] has as its system ischemic or histamine-induced paw edema. The note with it: various antioxidants including melatonin, together with dexamethasone; cited from earlier work.
Assay [2] deals with production of NO in brain. The note with it: after transient ischemia/recirculation; cited from earlier work.
The next assay concerns cheek pouch of a hamster. The note with it: cited from earlier work.
In another assay the test system is astroglia. Description: GFAP staining of brain specimens after brain ischemia (middle cerebral artery plug, 1 h, recanalization). It is filed as in vivo, rat. To be noted: 11 days after onset of ischemia, 6 mg/kg melatonin for 10 days, versus non-melatonin group. The source says:
Eight to ten-week-old Wister male rats having the body weight of 250 to 300 g were used.
Under halothane anesthesia, a 24 G plug was inserted from a right external carotid artery of each rat so as to arrive to an origin of its middle cerebral artery of Willis's circle through its internal carotid artery. Immediately the anesthesia was stopped and the rat was dehypnotized. After one hour, the plug was taken out under halothane anesthesia, thereby a blood flow was recanalized.
After 11 days from an onset of brain ischemia, the brain of each rat was fixed with an aqueous 4% paraformaldehyde solution to prepare a brain specimen. Then, the brain specimen was stained according to the standard ABC method using an anti-GFAP antibody (GFAP staining; astroglia were stained)
Ischemic rats in Example 1 were divided into two groups. In the first group (non-melatonin administration group), a physiological saline solution was injected to a stomach of each rat using a sound for 10 days from the first day (24 hours after the recanalization of the blood flow). In the second group (melatonin administration group), a melatonin-containing physiological saline solution was similarly administered in an amount of 6 mg of melatonin per kg of rat. […]

Assay [3] deals with acute pancreatitis (pancreatic edema) induced by cerulein. To be noted: rats; cited from earlier work.
The test system of assay [4] is astrocytes. The experiment in a line: Injury of incubated astrocytes by 3-NPA, neutron red assay. It is filed as cell-based, rat. The note with it: average ± SE, after 3 days. The protocol:
(§1) Isolation and incubation of astrocytes were conducted according to the method as described in Neuroscience, 87: […], 1998. Thus, cerebral cortex of a fetal rat was removed, from which astrocytes were separated with trypsin treatment at 37° C. for 20 minutes and incubated on a 24 well culture dish containing DMEM media+10% FBS under 5% CO2/air atmosphere at 37° C.
(§2) The injury of incubated astrocytes was induced by replacing the medium with a serum-free DMEM medium (serum-free group) or adding 6 mM of a metabolic inhibitor, 3-nitropropionic acid (3-NPA), to the medium (3-NPA group). The serum-free group and the 3-NPA group were divided into two sub-groups, respectively. To one sub-group of each group, 10 μg/ml of melatonin was added to the medium.
(§3) The number of the alive astrocytes was counted according to the neutron red assay after 3 days from the incubation in the 3-NPA group or according to the MTT (3-(4,5-dimethyl-thiozolyl)-2,5-diphenyl-tetrazolium bromide) assay after 10 days from the replacement of the medium. The test of significance was conducted by ANOVA.

A further assay concerns blood-brain barrier. Description: IgG diapedesis area from blood vessel after brain ischemia (anti-IgG staining, NIH imaging). It is filed as in vivo, rat. To be noted: average ± SE; 6 mg/kg melatonin into stomach for 10 days from 24 hours after recanalization; 11 rats. The source says: Eight to ten-week-old Wister male rats having the body weight of 250 to 300 g were used. Under halothane anesthesia, a 24 G plug was inserted from a right external carotid artery of each rat so as to arrive to an origin of its middle cerebral artery of Willis's circle through its internal carotid artery. Immediately the anesthesia was stopped and the rat was dehypnotized. After one hour, the plug was taken out under halothane anesthesia, thereby a blood flow was recanalized. Ischemic rats in Example 1 were divided into two groups. In the first group (non-melatonin administration group), a physiological saline solution was injected to a stomach of each rat using a sound for 10 days from the first day (24 hours after the recanalization of the blood flow). In the second group (melatonin administration group), a melatonin-containing physiological saline solution was similarly administered in an amount of 6 mg of melatonin per kg of rat.

The test system of assay [5] is carrageenan-induced inflammatory paw swelling. The note with it: rats; cited from earlier work.
Assay [6] deals with astrocytes. Description: Injury of incubated astrocytes by serum-free medium, MTT assay. It is filed as cell-based, rat. To be noted: average ± SE, serum-free DMEM + 10 μg/ml melatonin, after 10 days. The method, then: as §1, §2, §3
The next assay has as its system neurons. The experiment in a line: MAP-2 staining of brain specimens after brain ischemia. The note with it: 6 mg/kg melatonin for 10 days, versus non-melatonin group. It is filed as in vivo, rat.
The next assay relates to CA1 hippocampal neurons. To be noted: intraperitoneally, especially prior to cerebral ischemia or during recanalization; cited from earlier work.

In the case of `COc1ccc2[nH]cc(CCNC(C)=O)c2c1` [melatonin, N-[2-(5-methoxy-1H-indol-3-yl)ethyl]acetamide], the “suppression by dexamethasone of ischemic or histamine-induced paw edema” value in assay [1] is “enhance or prolong”. In addition, in [2], the “production of NO in brain” value is “inhibits”. Further, the “edema caused by ischemia-reperfusion of microcirculation” value in the assay with cheek pouch of a hamster (hamster cheek pouch) is on record as “reduces edema”. Also, in the assay on cheek pouch of a hamster (topical exposure to hypoxanthine-xanthine oxidase), the “increase of permeability of capillaries caused by free radicals” value was “reduces the increase of permeability”. Besides, in the assay with astroglia, the “falling out of astroglia in ischemic core area and gliosis in penumbra area” value is reported as “reduced”. Besides, the “acute pancreatitis (pancreatic edema) induced by cerulein” value in assay [3] is listed as “reduces an acute pancreatitis”. For the same compound, the number of astrocytes with astrocytes [4] (6 mM 3-NPA + 10 μg/ml melatonin, neutral red assay) was 63 ± 4 % of control. In the assay on blood-brain barrier, the “IgG diapedesis area, cerebral cortex” value was determined as 5.5 ± 4.5 mm^2 and the “IgG diapedesis area, corpus striatum” value was 7.2 ± 4.0 mm^2. In assay [5], the “carrageenan-induced inflammatory paw swelling” value is “suppresses”. Besides, in the assay with astrocytes [6], the number of astrocytes was 48 ± 4 % of control. In the assay on neurons, the “number of the alive neurons” value is recorded as “higher”. For the same compound, the “protection of CA1 hippocampal neurons from ischemic injury” value in the assay on CA1 hippocampal neurons was “protects”.

As to `O=C(O)CC[N+](=O)[O-]` [3-NPA, 3-nitropropionic acid], the number of astrocytes with astrocytes [4] (6 mM 3-NPA alone) is 50 ± 5 % of control.
